Test results published in ChEMBL document CHEMBL1140660, “Synthesis and structure-activity relationship of a novel, non-hydroxamate series of TNF-alpha converting enzyme inhibitors” (Bioorg Med Chem Lett, 2007).

How the values were obtained:
[1] = target: Disintegrin and metalloproteinase domain-containing protein 17 (Sus scrofa, UniProt O77636); experiment: Inhibition of porcine TACE
[2] = target: Stromelysin-1 (Homo sapiens, UniProt P08254); experiment: Inhibition of MMP3
[3] = target: T1, Matrilysin (Homo sapiens, UniProt P09237); experiment: Inhibition of MMP7
T1 sequence (P09237 whole entry): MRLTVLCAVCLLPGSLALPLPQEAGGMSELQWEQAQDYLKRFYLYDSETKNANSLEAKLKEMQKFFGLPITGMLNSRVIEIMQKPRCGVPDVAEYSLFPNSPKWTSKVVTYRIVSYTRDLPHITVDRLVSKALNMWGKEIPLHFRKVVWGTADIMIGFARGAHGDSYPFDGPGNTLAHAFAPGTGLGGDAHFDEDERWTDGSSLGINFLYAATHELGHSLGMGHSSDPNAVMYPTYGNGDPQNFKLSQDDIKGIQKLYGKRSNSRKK

[4] = target: Collagenase 3 (Homo sapiens, UniProt P45452); experiment: Inhibition of MMP13
[5] = target: Macrophage metalloelastase (Homo sapiens, UniProt P39900); experiment: Inhibition of MMP12
[6] = target: 72 kDa type IV collagenase (Homo sapiens, UniProt P08253); experiment: Inhibition of MMP2
72 kDa type IV collagenase, sequence (P08253 whole entry): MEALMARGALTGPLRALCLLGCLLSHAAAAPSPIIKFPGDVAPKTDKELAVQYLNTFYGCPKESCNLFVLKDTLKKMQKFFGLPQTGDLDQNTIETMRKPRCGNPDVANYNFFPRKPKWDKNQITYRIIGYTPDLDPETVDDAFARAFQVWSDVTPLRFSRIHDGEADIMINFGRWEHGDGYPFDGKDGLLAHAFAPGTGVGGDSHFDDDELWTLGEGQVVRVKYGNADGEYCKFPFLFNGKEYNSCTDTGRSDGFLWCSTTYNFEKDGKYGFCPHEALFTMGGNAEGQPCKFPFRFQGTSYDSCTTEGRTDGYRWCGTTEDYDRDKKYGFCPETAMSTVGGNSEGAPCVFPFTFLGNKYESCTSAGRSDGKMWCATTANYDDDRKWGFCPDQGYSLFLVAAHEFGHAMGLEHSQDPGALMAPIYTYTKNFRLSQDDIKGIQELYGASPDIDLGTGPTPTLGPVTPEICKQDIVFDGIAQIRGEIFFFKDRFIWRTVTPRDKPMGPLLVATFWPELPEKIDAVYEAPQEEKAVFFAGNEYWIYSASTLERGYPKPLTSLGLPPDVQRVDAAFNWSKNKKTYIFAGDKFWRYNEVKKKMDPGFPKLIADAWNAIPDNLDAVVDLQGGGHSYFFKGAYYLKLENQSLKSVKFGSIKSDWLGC

Disintegrin and metalloproteinase domain-containing protein 17, sequence (O77636 whole entry, the tested form may be a part): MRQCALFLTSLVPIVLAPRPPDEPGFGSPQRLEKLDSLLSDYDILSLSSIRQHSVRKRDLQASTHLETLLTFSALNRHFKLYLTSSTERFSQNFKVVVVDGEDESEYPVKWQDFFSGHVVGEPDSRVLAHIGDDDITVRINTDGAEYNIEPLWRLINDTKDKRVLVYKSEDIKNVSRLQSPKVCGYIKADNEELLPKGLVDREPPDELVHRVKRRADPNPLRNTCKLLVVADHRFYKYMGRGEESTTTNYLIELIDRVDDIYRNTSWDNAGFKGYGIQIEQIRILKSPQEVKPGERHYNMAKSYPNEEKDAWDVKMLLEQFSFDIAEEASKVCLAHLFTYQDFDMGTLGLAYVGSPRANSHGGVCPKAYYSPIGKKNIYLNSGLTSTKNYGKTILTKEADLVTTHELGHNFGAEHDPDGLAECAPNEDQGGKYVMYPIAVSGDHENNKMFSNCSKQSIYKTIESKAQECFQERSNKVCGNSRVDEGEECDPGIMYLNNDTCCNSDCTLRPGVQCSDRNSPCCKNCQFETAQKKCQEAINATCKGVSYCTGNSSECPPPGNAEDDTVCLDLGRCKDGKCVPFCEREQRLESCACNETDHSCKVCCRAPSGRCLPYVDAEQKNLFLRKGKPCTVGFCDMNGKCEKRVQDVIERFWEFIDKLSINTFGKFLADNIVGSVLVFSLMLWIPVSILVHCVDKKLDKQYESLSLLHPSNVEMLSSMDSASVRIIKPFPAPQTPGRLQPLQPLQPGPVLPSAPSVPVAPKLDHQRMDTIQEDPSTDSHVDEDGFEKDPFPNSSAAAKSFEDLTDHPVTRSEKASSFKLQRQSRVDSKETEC
Stromelysin-1, sequence (P08254 whole entry): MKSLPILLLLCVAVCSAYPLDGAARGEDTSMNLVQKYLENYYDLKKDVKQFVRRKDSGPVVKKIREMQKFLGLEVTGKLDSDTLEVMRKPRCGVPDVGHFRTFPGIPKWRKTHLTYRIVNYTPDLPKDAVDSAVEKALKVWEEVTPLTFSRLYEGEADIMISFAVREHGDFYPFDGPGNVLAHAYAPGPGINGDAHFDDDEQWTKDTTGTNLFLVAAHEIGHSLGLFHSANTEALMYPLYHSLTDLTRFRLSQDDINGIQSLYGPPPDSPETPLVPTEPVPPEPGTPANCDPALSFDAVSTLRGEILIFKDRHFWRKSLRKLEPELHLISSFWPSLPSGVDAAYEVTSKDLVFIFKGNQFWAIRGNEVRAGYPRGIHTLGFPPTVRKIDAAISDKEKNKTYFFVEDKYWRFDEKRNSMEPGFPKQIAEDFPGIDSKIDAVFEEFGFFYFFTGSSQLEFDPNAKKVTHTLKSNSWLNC
Macrophage metalloelastase, sequence (P39900 whole entry): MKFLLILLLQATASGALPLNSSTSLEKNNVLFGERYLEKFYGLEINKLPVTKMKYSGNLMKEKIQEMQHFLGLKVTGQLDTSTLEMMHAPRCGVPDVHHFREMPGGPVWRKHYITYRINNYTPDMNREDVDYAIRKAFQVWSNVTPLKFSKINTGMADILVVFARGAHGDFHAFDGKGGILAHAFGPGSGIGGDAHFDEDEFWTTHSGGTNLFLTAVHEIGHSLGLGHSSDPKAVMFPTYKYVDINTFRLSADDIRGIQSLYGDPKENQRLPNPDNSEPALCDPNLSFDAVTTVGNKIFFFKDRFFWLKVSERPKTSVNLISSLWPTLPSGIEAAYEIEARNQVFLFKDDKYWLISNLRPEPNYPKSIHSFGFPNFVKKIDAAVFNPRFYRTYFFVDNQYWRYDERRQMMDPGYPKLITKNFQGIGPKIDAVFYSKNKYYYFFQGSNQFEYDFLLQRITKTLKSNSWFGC

SMILES | IC50 [1] | Ki [2] | Ki [3] | Ki [4] | Ki [5] | Ki [6]
Cc1cc(COc2ccc(C(=O)NC3(Cc4n[nH]c(=S)[nH]4)CCOCC3)cc2)c2ccccc2n1 | 0.024 µM | 2.1 µM | 0.635 µM | 0.753 µM | 0.223 µM | 1.6 µM
Cc1cc(COc2ccc([C@]3(N)CCN([C@H](CC(C)C)c4n[nH]c(=S)[nH]4)C3=O)cc2)c2ccccc2n1 | > 1 µM | > 4.5 µM | > 6.37 µM | > 5.03 µM | > 6.02 µM | > 3.33 µM
Cc1cc(COc2ccc(C(=O)NCCc3n[nH]c(=S)[nH]3)cc2)c2ccccc2n1 | 0.21 µM | > 4.5 µM | > 6.37 µM | > 5.03 µM | > 6.02 µM | > 3.33 µM
O=C(NCCCc1n[nH]c(=S)[nH]1)c1ccc(OCc2ccnc3ccccc23)cc1 | 0.294 µM | > 4.5 µM | > 6.37 µM | > 5.03 µM | > 6.02 µM | > 3.33 µM
Cc1cc(COc2ccc(C(=O)NC(C)(C)Cc3n[nH]c(=S)[nH]3)cc2)c2ccccc2n1 | 0.055 µM | > 4.5 µM | > 6.37 µM | > 5.03 µM | > 6.02 µM | > 3.33 µM
Cc1cc(COc2ccc(C(=O)NCc3n[nH]c(=S)[nH]3)cc2)c2ccccc2n1 | > 1 µM | > 4.5 µM | > 6.37 µM | > 5.03 µM | > 6.02 µM | > 3.33 µM
Cc1cc(COc2ccc(C(=O)NC3(Cc4n[nH]c(=S)[nH]4)CCN(C(=O)OC(C)(C)C)CC3)cc2)c2ccccc2n1 | 0.036 µM | > 4.5 µM | > 6.37 µM | > 5.03 µM | > 6.02 µM | > 3.33 µM
Cc1cc(COc2ccc(C(=O)N[C@@H]3CN(C(=O)OC(C)(C)C)C[C@@H]3c3n[nH]c(=S)[nH]3)cc2)c2ccccc2n1 (relative stereo) | 0.014 µM | > 4.5 µM | > 6.37 µM | > 5.03 µM | 3.56 µM | > 3.33 µM
CC(=O)N1C[C@H](c2n[nH]c(=S)[nH]2)[C@H](NC(=O)c2ccc(OCc3cc(C)nc4ccccc34)cc2)C1 (relative stereo) | 0.0015 µM | > 4.5 µM | > 6.37 µM | > 5.03 µM | > 6.02 µM | > 3.33 µM
Cc1cc(COc2ccc(C(=O)N[C@@H]3CCOC[C@@H]3c3n[nH]c(=S)[nH]3)cc2)c2ccccc2n1 (relative stereo) | 0.0081 µM | > 4.5 µM | > 6.37 µM | > 5.03 µM | > 6.02 µM | > 3.33 µM
Cc1cc(COc2ccc(C(=O)N[C@@H]3CCNC[C@@H]3c3n[nH]c(=S)[nH]3)cc2)c2ccccc2n1 (relative stereo) | 0.043 µM | > 4.5 µM | > 6.37 µM | > 5.03 µM | > 6.02 µM | > 3.33 µM
